Source: paper PMC11677527, “Predicting Pharmacokinetics of Active Constituents in Spatholobi caulis by Using Physiologically Based Pharmacokinetic Models” (Pharmaceuticals, 2024)
Like-named read-outs stand apart in the source and are kept apart here.

Columns and labels:
[1] = set-up: method as in PMID 34303214; details: rats, p.o. SPC 30 g crude drug/kg; doses of 1-4: 0.062, 0.11, 0.71, 1.31 mg/kg; cited from earlier work
[2] = Verification pharmacokinetic experiment in rats, SPC 60 g crude drug/kg by gavage, UFLC-MS/MS, DAS 2.0; format: in vivo, rat
Method in brief: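 Rats received SPC suspension at 60 g crude drug/kg by gavage. Orbital blood was taken at 0.083–12 h into heparin, and plasma 3′-methoxydaidzein, 8-O-methylretusin, daidzin and isolariciresinol were measured by UFLC-MS/MS (C18, MRM, carbamazepine internal standard). PK parameters were calculated from concentration-time curves.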

Caco-2 cell monolayer = system: Caco-2 cell monolayer; set-up: method as in PMID 36680806, PMID 26501241; details: Caco-2 cell monolayer model; cited from earlier work
[3] = Observed pharmacokinetics in rats after oral SPC (previous study); format: in vivo, rat; details: p.o. SPC
[4] = compartment model parameters, DAS 2.0, rats p.o. SPC 60 g crude drug/kg, Mean, 5 rats
[5] = statistical moment parameters, DAS 2.0, rats p.o. SPC 60 g crude drug/kg, Mean, 5 rats
[6] = statistical moment parameters, DAS 2.0, rats p.o. SPC 60 g crude drug/kg, Mean, 5 rats, in µg·h²/mL

COc1cc([C@H]2c3cc(O)c(OC)cc3C[C@@H](CO)[C@@H]2CO)ccc1O [Constituent 4, isolariciresinol]
AUC0→t Obs. [1]: 34.7 ng·h/mL | AUC0→∞ Obs. [1]: 38.3 ng·h/mL | Cmax Obs. [1]: 26.2 ng/mL | Tmax Obs. [1]: 0.31 h | K10 [2, 4]: 7.512 h⁻¹ | K12 [2, 4]: 0.448 h⁻¹ | K21 [2, 4]: 0.247 h⁻¹ | Ka [2, 4]: 5.032 h⁻¹ | Tlag [2, 4]: 0 h | V1/F [2, 4]: 29.573 L/kg | t1/2Ka [2, 4]: 0.175 h | t1/2α [2, 4]: 0.433 h | concentration at 0.083 h ([2]; rat, plasma, oral, time 0.083 h, rats p.o. SPC 60 g crude drug/kg, doses of 1-4: 0.124, 0.22, 1.4, 2.62 mg/kg, 5 rats): 15.4 ng/mL | concentration at 0.25 h ([2]; rat, plasma, oral, time 0.25 h, rats p.o. SPC 60 g crude drug/kg, doses of 1-4: 0.124, 0.22, 1.4, 2.62 mg/kg, 5 rats): 41.5 ng/mL | concentration at 0.5 h ([2]; rat, plasma, oral, time 0.5 h, rats p.o. SPC 60 g crude drug/kg, doses of 1-4: 0.124, 0.22, 1.4, 2.62 mg/kg, 5 rats): 41.7 ng/mL | concentration at 0.75 h ([2]; rat, plasma, oral, time 0.75 h, rats p.o. SPC 60 g crude drug/kg, doses of 1-4: 0.124, 0.22, 1.4, 2.62 mg/kg, 5 rats): 27.6 ng/mL | concentration at 1 h ([2]; rat, plasma, oral, time 1 h, rats p.o. SPC 60 g crude drug/kg, doses of 1-4: 0.124, 0.22, 1.4, 2.62 mg/kg, 5 rats): 22.2 ng/mL | concentration at 1.5 h ([2]; rat, plasma, oral, time 1.5 h, rats p.o. SPC 60 g crude drug/kg, doses of 1-4: 0.124, 0.22, 1.4, 2.62 mg/kg, 5 rats): 8.29 ng/mL | concentration at 2 h ([2]; rat, plasma, oral, time 2 h, rats p.o. SPC 60 g crude drug/kg, doses of 1-4: 0.124, 0.22, 1.4, 2.62 mg/kg, 5 rats): 7.03 ng/mL | concentration at 3 h ([2]; rat, plasma, oral, time 3 h, rats p.o. SPC 60 g crude drug/kg, doses of 1-4: 0.124, 0.22, 1.4, 2.62 mg/kg, 5 rats): 4.27 ng/mL | concentration at 4 h ([2]; rat, plasma, oral, time 4 h, rats p.o. SPC 60 g crude drug/kg, doses of 1-4: 0.124, 0.22, 1.4, 2.62 mg/kg, 5 rats): 3.41 ng/mL | concentration at 6 h ([2]; rat, plasma, oral, time 6 h, rats p.o. SPC 60 g crude drug/kg, doses of 1-4: 0.124, 0.22, 1.4, 2.62 mg/kg, 5 rats): 2.01 ng/mL | AUC(0-t) ([2]; rat, plasma, po, 2.62 mg/kg, compartment model parameters, DAS 2.0, rats p.o. SPC 60 g crude drug/kg, Mean, 5 rats, read-out: AUC(0-t)): 46.4 ng·h/mL | AUC(0-inf) ([2]; rat, plasma, po, 2.62 mg/kg, compartment model parameters, DAS 2.0, rats p.o. SPC 60 g crude drug/kg, Mean, 5 rats, read-out: AUC(0-∞)): 52.8 ng·h/mL | CL/F ([2]; rat, plasma, po, 2.62 mg/kg, compartment model parameters, DAS 2.0, rats p.o. SPC 60 g crude drug/kg, Mean, 5 rats, read-out: CL/F (converted)): 1660 mL/min/kg | half-life ([2]; rat, plasma, po, 2.62 mg/kg, compartment model parameters, DAS 2.0, rats p.o. SPC 60 g crude drug/kg, Mean, 5 rats, read-out: t1/2β (converted)): 17.4 h | AUC(0-t) ([2]; rat, plasma, po, 2.62 mg/kg, rats, p.o. SPC 60 g crude drug/kg, doses of 1-4: 0.124, 0.22, 1.42, 2.62 mg/kg, n = 5, read-out: AUC0→t Val.): 55.7 ng·h/mL | AUC(0-inf) ([2]; rat, plasma, po, 2.62 mg/kg, rats, p.o. SPC 60 g crude drug/kg, doses of 1-4: 0.124, 0.22, 1.42, 2.62 mg/kg, n = 5, read-out: AUC0→∞ Val.): 59.3 ng·h/mL | Cmax ([2]; rat, plasma, po, 2.62 mg/kg, rats, p.o. SPC 60 g crude drug/kg, doses of 1-4: 0.124, 0.22, 1.42, 2.62 mg/kg, n = 5, read-out: Cmax Val.): 41.7 ng/mL | AUC(0-t) ([2]; rat, plasma, po, 2.62 mg/kg, statistical moment parameters, DAS 2.0, rats p.o. SPC 60 g crude drug/kg, Mean, 5 rats, read-out: AUC(0-t)): 55.7 ng·h/mL | AUC(0-inf) ([2]; rat, plasma, po, 2.62 mg/kg, statistical moment parameters, DAS 2.0, rats p.o. SPC 60 g crude drug/kg, Mean, 5 rats, read-out: AUC(0-∞)): 59.3 ng·h/mL | CL/F ([2]; rat, plasma, po, 2.62 mg/kg, statistical moment parameters, DAS 2.0, rats p.o. SPC 60 g crude drug/kg, Mean, 5 rats, read-out: CLz/F (converted)): 738 mL/min/kg | Cmax ([2]; rat, plasma, po, 2.62 mg/kg, statistical moment parameters, DAS 2.0, rats p.o. SPC 60 g crude drug/kg, Mean, 5 rats, read-out: Cmax): 41.7 ng/mL | MRT last ([2]; rat, plasma, po, 2.62 mg/kg, statistical moment parameters, DAS 2.0, rats p.o. SPC 60 g crude drug/kg, Mean, 5 rats, read-out: MRT(0-t)): 1.48 h | MRT inf ([2]; rat, plasma, po, 2.62 mg/kg, statistical moment parameters, DAS 2.0, rats p.o. SPC 60 g crude drug/kg, Mean, 5 rats, read-out: MRT(0-∞)): 2.08 h | Tmax ([2]; rat, plasma, po, 2.62 mg/kg, statistical moment parameters, DAS 2.0, rats p.o. SPC 60 g crude drug/kg, Mean, 5 rats, read-out: Tmax): 0.3 h | Vd/F ([2]; rat, plasma, po, 2.62 mg/kg, statistical moment parameters, DAS 2.0, rats p.o. SPC 60 g crude drug/kg, Mean, 5 rats, read-out: Vz/F): 111 L/kg | half-life ([2]; rat, plasma, po, 2.62 mg/kg, statistical moment parameters, DAS 2.0, rats p.o. SPC 60 g crude drug/kg, Mean, 5 rats, read-out: t1/2z (converted)): 1.73 h | Cz [2, 5]: 1.39 µg/L | VRT(0-t) [2, 5]: 2.067 h^2 | VRT(0-∞) [2, 5]: 6.027 h^2 | elimination rate constant [2, 5]: 0.412 h⁻¹ | AUMC(0-t) [2, 6]: 82.484 | AUMC(0-∞) [2, 6]: 123.911 | Papp (Caco-2 cell monolayer): 2.2 ×10⁻⁶ cm/s | time of slight secondary absorption peak [3]: 6 h
